Test results as given in patent publication US20100063041A1, “NOVEL PHENYLPROPIONIC ACID DERIVATIVES AS PEROXISOME PROLIFERATOR-ACTIVATED GAMMA RECEPTOR MODULATORS, METHOD OF THE SAME, AND PHARMACEUTICAL COMPOSITION COMPRISING THE SAME” (priority 2007, published 2010).
Positions count from the first letter of the chain named.

Legend:
Human PPAR-α = molecular target: T1, Human PPAR-α (Homo sapiens, UniProt Q07869); assay: transactivation assay (GAL4 chimeric receptor, luciferase) in CV-1 cells; format: cell-based; settings: for Emax: CV-1, Relative Response % to maximum effects of the positive control drug, read-out: Max % Human PPAR-α; for EC50: CV-1 cells, GAL4 chimeric receptor, 24 hours
T1 construct: expressed in transfected cells; host or cells: CV-1 (CCL-70, ATCC)
T1 sequence (Q07869 239-466 limits assumed): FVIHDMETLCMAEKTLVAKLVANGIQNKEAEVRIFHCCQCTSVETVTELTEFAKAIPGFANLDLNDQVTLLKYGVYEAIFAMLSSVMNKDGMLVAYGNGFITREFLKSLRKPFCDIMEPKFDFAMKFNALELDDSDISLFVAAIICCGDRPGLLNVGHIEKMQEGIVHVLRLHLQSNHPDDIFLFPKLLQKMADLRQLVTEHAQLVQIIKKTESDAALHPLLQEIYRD
Description: (§1) Following induction of transient intracellular expression of PPAR-α and -γ, an ability of the inventive compounds to induce transactivation of PPARs via activation of each PPAR was evaluated as an efficacy of the compound (transactivation assay).
(§2) For this assay, the African green monkey kidney cell line CV-1 (CCL-70, ATCC) was used as a test cell line, and PPAR-α and -γ were murine- and human-derived PPARs. Samples used were compounds prepared in Examples 19, 21, 23, 25, 26, 27, 31, 33, 34, 36, 38, 40, 42, 43 and 50. As a positive control drug, 3-4-[2-(2-phenyl-4-methyl-1,3-oxazole)ethyloxy]phenyl-(2S)-[(1-methyl-3-oxo-3-phenyl)propenyl]aminopropionic acid was used that is a PPAR-α or -γ agonist which was once under development and whose clinical trials and studies were suspended at phase III. A chimeric receptor was adopted to circumvent the probable interference due to endogenous receptor activation (Jian-Shen Q. et al., Mol Cell Biol (1995) 15(3):1817-1825). The chimeric receptor was constructed as a fusion of a PPAR-α or -γ ligand-binding domain with a DNA-binding domain of GAL4 which is a yeast transactivator.
(§3) The CV-1 cells were transiently transfected with each of chimeric receptor-expressing DNA constructs and each of DNA constructs comprising 5 copies of the GAL4 DNA-binding domain and capable of inducing expression of firefly luciferase or Renilla luciferase using a Lipofectamine Plus reagent (Invitrogen, USA). After transfection for 3 hours, the culture media were replaced with DMEM containing the above samples and 10% fetal bovine serum. 24 hours later, the firefly luciferase activity and Renilla luciferase activity were continuously assayed while adding an equal amount of a dual luciferase assay reagent (Promega, USA) to the cell-containing media. The transfection efficiency was normalized against Renilla luciferase activity (Motomura W. et al., Int J Cancer (2004) 108(1):41-6). The PPAR-α and -γ activity was determined by calculating Relative Response % to maximum effects of the positive control drug, and conducting multiple dose evaluation of the inventive compounds to calculate EC50, which is the concentration of a drug which produces 50% activation relative to maximum effects of the inventive compounds, by nonlinear regression analysis.

Human PPAR-γ = molecular target: T2, Human PPAR-γ (Homo sapiens, UniProt P37231); assay: as above; format: cell-based; settings: for Emax: CV-1, Relative Response % to maximum effects of the positive control drug, read-out: Max % Human PPAR-γ; for EC50: CV-1 cells, GAL4 chimeric receptor, 24 hours
T2 construct: expressed in transfected cells; host or cells: CV-1 (CCL-70, ATCC)
T2 sequence (P37231 238-503 limits assumed): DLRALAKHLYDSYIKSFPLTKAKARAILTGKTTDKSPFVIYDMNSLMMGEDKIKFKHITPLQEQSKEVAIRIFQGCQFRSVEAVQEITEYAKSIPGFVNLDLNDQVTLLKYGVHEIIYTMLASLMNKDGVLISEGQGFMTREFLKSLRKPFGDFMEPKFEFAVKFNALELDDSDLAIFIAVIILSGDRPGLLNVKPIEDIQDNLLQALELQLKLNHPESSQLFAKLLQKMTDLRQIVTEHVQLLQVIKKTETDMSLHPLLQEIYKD
Description: as §1, §2, §3

Mouse PPAR-α = molecular target: T3, Mouse PPAR-α (Mus musculus, UniProt P23204); assay: as above; format: cell-based; settings: for Emax: CV-1, Relative Response % to maximum effects of the positive control drug, read-out: Max % Mouse PPAR-α; for EC50: CV-1 cells, GAL4 chimeric receptor, 24 hours
T3 construct: expressed in transfected cells; host or cells: CV-1 (CCL-70, ATCC)
T3 sequence (P23204 239-466 limits assumed): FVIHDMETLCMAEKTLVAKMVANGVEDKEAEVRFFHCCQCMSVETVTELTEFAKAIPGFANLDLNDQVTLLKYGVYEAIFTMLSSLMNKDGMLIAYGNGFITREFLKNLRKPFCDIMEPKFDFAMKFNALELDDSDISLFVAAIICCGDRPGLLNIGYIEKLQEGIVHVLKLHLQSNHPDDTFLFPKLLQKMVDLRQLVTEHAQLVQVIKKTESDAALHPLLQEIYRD
Description: as §1, §2, §3

Mouse PPAR-γ = molecular target: T4, Mouse PPAR-γ (Mus musculus, UniProt P37238); assay: as above; format: cell-based; settings: for Emax: CV-1, Relative Response % to maximum effects of the positive control drug, read-out: Max % Mouse PPAR-γ; for EC50: CV-1 cells, GAL4 chimeric receptor, 24 hours
T4 construct: expressed in transfected cells; host or cells: CV-1 (CCL-70, ATCC)
T4 sequence (P37238 238-503 limits assumed): T2 sequence (P37231 238-503 limits assumed) with S93N, V98I, S146N, L226V, Q245H
Description: as §1, §2, §3

[1] = tested on: diabetic male mice (db/db mice); assay: blood glucose-lowering effects in mice with hyperglycemic diabetes; format: in vivo; settings: for % Inhibition vs. Control / Blood glucose D5: oral once a day for 5 days
Description: Effects of PPAR compounds on a blood glucose level were evaluated in 7-week-old diabetic male mice (db/db mice). Blood was collected from caudal veins of the diabetic animals to which the drug was administered once a day for 5 consecutive days, and the blood glucose level was then measured with a blood glucose test meter (ACCU CHEK Active®).

Trap220 = settings: cited from earlier work
[2] = 12-week clinical, P>0.05, cited from earlier work

Structure (SMILES) | Emax (Human PPAR-α) [%] | Emax (Human PPAR-γ) [%] | EC50 (Human PPAR-γ) [nM] | Emax (Mouse PPAR-α) [%] | Emax (Mouse PPAR-γ) [%] | EC50 (Mouse PPAR-γ) [nM] | % Inhibition vs. Control ([1]; 0.3 mg/kg) [%] | Blood glucose D5 ([1]; 0.3 mg/kg) [mg/dL] | % Inhibition vs. Control ([1]; 1 mg/kg) [%] | Blood glucose D5 ([1]; 1 mg/kg) [mg/dL] | % Inhibition vs. Control ([1]; 3 mg/kg) [%] | Blood glucose D5 ([1]; 3 mg/kg) [mg/dL] | Blood glucose D0 ([1]; oral, 0.3 mg/kg) [mg/dL] | Blood glucose D0 ([1]; oral, 1 mg/kg) [mg/dL] | Blood glucose D0 ([1]; oral, 3 mg/kg) [mg/dL] | EC50 (Human PPAR-α) [nM] | EC50 (Mouse PPAR-α) [nM] | % Inhibition vs. Control ([1]; 10 mg/kg) [%] | Blood glucose D5 ([1]; 10 mg/kg) [mg/dL] | Blood glucose D0 ([1]; oral, 10 mg/kg) [mg/dL] | further results
CCO[C@@H](Cc1ccc(OCc2sc(-c3ccc(-c4csc(C)n4)cc3)cc2C)cc1)C(=O)O [Example 21, (S)-2-ethoxy-3-(4-((3-methyl-5-(4-(2-methylthiazol-4-yl)phenyl)thiophen-2-yl)methoxy)phenyl)propionic acid] | 0 | 15 | 472 | 4 | 18 | 883 | 28 | 354 ± 67 | 29 | 354 ± 58 | 36 | 319 ± 63 | 483 ± 38 | 482 ± 45 | 483 ± 45 | – | – | – | – | – | % Inhibition vs. Control ([1]; 0.1 mg/kg): 16%; Blood glucose D5 ([1]; 0.1 mg/kg): 416 ± 45 mg/dL; Blood glucose D0 ([1]; oral, 0.1 mg/kg): 485 ± 44 mg/dL
CCO[C@@H](Cc1ccc(OCc2sc(-c3ccc(-c4nnn(COC)n4)cc3)cc2C)cc1)C(=O)O [Example 32, (S)-2-ethoxy-3-(4-((5-(4-(2-(methoxymethyl)-2H-tetrazol-5-yl)phenyl)-3-methylthiophen-2-yl)methoxy)phenyl)propionic acid] | 18 | 32 | 111 | 9 | 31 | 322 | 21 | 416 ± 53 | – | – | 61 | 205 ± 42 | 500 ± 32 | – | 498 ± 30 | 1010 | – | – | – | – | –
CCO[C@@H](Cc1ccc(OCc2sc(-c3ccc(-c4cc(COC)on4)cc3)cc2C)cc1)C(=O)O [Example 36, (S)-2-ethoxy-3-(4-((5-(4-(5-(methoxymethyl)isoxazol-3-yl)phenyl)-3-methylthiophen-2-yl)methoxy)phenyl)propionic acid] | 25 | 37 | 41 | 21 | 48 | 354 | – | – | 33 | 381 ± 73 | – | – | – | 577 ± 15 | – | 2300 | 4300 | 62 | 278 ± 56 | 577 ± 16 | –
CCO[C@@H](Cc1ccc(OCc2sc(-c3ccc(-c4cc(C)no4)cc3)cc2C)cc1)C(=O)O [Example 41, (S)-2-ethoxy-3-(4-((3-methyl-5-(4-(3-methylisoxazol-5-yl)phenyl)thiophen-2-yl)methoxy)phenyl)propionic acid] | 23 | 30 | 62 | 19 | 34 | 142 | 20 | 378 ± 44 | 36 | 304 ± 13 | 46 | 257 ± 40 | 422 ± 36 | 422 ± 30 | 423 ± 35 | 3150 | 6160 | – | – | – | % Inhibition vs. Control ([1]; 0.1 mg/kg): 4%; Blood glucose D5 ([1]; 0.1 mg/kg): 455 ± 67 mg/dL; Blood glucose D0 ([1]; oral, 0.1 mg/kg): 422 ± 34 mg/dL
CCO[C@@H](Cc1ccc(OCc2sc(-c3ccc(-c4cc(C(C)(C)C)on4)cc3)cc2C)cc1)C(=O)O [Example 48, (S)-3-(4-((5-(4-(5-tert-butylisoxazol-3-yl)phenyl)-3-methylthiophen-2-yl)methoxy)phenyl)-2-ethoxypropionic acid] | 22 | 27 | 7 | 25 | 24 | 31 | – | – | 24 | 375 ± 25 | 30 | 347 ± 70 | – | 452 ± 22 | 453 ± 20 | 2830 | 12100 | 43 | 280 ± 40 | 453 ± 43 | –
O=S(=O)(Nc1cc(Cl)c(Oc2cnc3ccccc3c2)c(Cl)c1)c1ccc(Cl)cc1Cl [INT-131, reference compound] | – | – | – | – | – | – | – | – | 8 | 350 ± 31 | 25 | 286 ± 34 | – | 381 ± 30 | 382 ± 31 | – | – | 38 | 237 ± 19 | 382 ± 28 | ED30 ([1]; oral, blood glucose): 4 mg/kg; binding capacity for Trap220 (Trap220): attenuated binding capacity
CC(=O)NCCOC(=O)[C@H](Oc1cccc(C(F)(F)F)c1)c1ccc(Cl)cc1 [metaglidasen] | – | – | – | – | – | – | – | – | – | – | – | – | – | – | – | – | – | – | – | – | edema incidence rate ([2]; 20% in control group): 7.2%; body weight ([2]; +1.3 kg in control group): +0.6 kg
